In article PMC9475553, “SHF Acts as a Novel Tumor Suppressor in Glioblastoma Multiforme by Disrupting STAT3 Dimerization” (Advanced Science, 2022):

Tested on: STAT3 targeted genes
Assay: qRT-PCR of STAT3 targeted genes in derived xenografts
Type: in vivo, mouse
Settings: 10 µg i.p. once every 2 days, n = 6, p < 0.01
Procedure: Figure 7 Peptide derived from the STAT3‐binding sites of SHF is an effective GBM suppressive strategy. A) Binding model between SHF and STAT3 using ZDOCK server. […] B) IF staining determined the cell penetrability and nuclear‐localization of C16. U251 cells were incubated with C16 or SC for 2 h and performed IF staining using the indicated antibodies. Bars, 10 µm. C) The statical analysis of adsorption equilibrium assay detecting the binding of C16 and SC with recombinant STAT3. D) Pull‐down assay indicating C16 binds STAT3. GST‐STAT3 was incubated with C16 or SC for 2 h, and the pull‐down assay was performed using Anti‐His magnetic beads. E) IP assay showing the effect of C16 on STAT3 dimerization. […] The relative quantification of STAT3 dimerization was listed. […] The relative quantification of STAT3/DNMT1 interaction was listed. […] The relative quantification of STAT3/DNMT1 interaction was listed. […] Positive cells were quantified 20 randomly selected fields per mouse (n = 6, Student's t‐test, **p < 0.01). […]
Total RNA was extracted using TRIzol reagent (Invitrogen) according to the manufacturer's instructions. cDNA was synthesized with the M‐MLV Reverse Transcriptase Kit (Cwbio, Beijing, China). PCR analyses were conducted to quantify mRNA expression using Real SYBR Mixture (Cwbio) on a Lightcycler 480 II instrument (Roche Applied Science). […]

C16: peptide spanning SHF amino acids 388–421, palmitic acid at the N-terminus, amidated C-terminus, 3× His tags added to the C-terminal (PFSSVPEIVHHYASRKLPIKGAEHMSLLYPVAIR; palmitic acid at the N-terminus; amidated C-terminus; left off: 3× His tags, C-terminal, kept)
STAT3 targeted gene expression in derived xenografts: significantly down‐regulated
